Data on 36 molecules can be found in patent US12023333B2, “Phenyl-sulfamoyl.benzoyc acids as ERAP1 modulators” (GREY WOLF THERAPEUTICS LIMITED, priority 2019, dated 2024).

T1 sequence (Q9NZ08 37-941): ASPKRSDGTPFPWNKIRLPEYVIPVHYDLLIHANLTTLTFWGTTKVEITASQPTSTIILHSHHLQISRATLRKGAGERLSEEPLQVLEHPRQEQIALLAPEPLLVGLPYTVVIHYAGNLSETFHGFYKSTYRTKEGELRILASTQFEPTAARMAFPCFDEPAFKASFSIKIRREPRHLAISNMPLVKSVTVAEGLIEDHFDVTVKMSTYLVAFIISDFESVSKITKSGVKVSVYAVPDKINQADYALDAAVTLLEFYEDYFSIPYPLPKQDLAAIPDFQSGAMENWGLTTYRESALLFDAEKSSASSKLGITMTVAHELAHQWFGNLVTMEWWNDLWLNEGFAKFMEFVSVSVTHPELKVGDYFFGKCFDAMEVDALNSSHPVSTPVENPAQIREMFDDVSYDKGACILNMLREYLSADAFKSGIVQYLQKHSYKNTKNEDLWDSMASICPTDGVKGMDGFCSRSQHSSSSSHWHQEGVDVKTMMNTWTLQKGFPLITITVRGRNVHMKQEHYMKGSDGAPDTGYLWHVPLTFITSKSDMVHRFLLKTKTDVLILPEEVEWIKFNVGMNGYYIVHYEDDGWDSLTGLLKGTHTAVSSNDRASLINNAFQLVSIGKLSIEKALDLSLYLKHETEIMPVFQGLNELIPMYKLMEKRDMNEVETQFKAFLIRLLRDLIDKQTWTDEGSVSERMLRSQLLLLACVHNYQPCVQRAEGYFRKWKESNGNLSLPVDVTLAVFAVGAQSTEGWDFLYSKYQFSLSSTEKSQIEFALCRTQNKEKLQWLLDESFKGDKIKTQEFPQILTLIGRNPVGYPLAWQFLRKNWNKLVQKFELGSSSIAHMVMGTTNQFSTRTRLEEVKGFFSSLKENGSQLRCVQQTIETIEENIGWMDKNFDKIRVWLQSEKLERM

This test addresses T1, Purified ERAP1(37-941)-10His (ERAP1) (Homo sapiens, UniProt Q9NZ08).
T1 construct: Purified ERAP1(37-941)-10His (ERAP1); 10His (C)
Description: ERAP1 mediated hydrolysis of an amide substrate measured in a biochemical system (10-mer decapeptide substrate). The following applies: 10-mer substrate, 23° C. for 1 h, excitation 279 nm and emission 355 nm; read-out: IC50 vs Decapeptide WRVYEKC(Dnp)ALK-acid (where Dnp is Dinitrophenyl maleimide) (10-mer). As for the experimental part: Biological Assay 1: ERAP1 Mediated Hydrolysis of an Amide Substrate Measured in a Biochemical System
1× Assay buffer (AB): 25 mM Bis-tris propane, 0.05% w/v Hydroxypropylmethylcellulose pH 7.75 made with Optima grade water
Decapeptide WRVYEKC(Dnp)ALK-acid (where Dnp is Dinitrophenyl maleimide) (10-mer) L-Leucine 7-amido-4-methylcoumarin (L-AMC)
12.5 μL ERAP1 enzyme in 1×AB was combined with 250 nL test compound in DMSO. 12.5 μL of either 240 μM L-AMC in 1×AB or 100 μM 10-mer in 1×AB was added to the reaction and incubated at 23° C. for 1 h. For detection, plates were read at excitation 365 nm and emission 442 nm (L-AMC) or excitation 279 nm and emission 355 nm (10-mer). Compound IC50 was determined using a 4 parameter equation.
Turning to `COc1ccc(C(=O)O)cc1S(=O)(=O)Nc1cc(C(F)(F)F)ccc1-n1cccc1` [Example 35, 3-(N-(2-(pyrrol-1-yl)-5-(trifluoromethyl)phenyl)sulfamoyl)-4-methoxybenzoic acid], the IC50 (usually the concentration at which inhibition is half-maximal) was less than 500 nM. In the case of `CCc1ccc(C(=O)O)cc1S(=O)(=O)Nc1cc(C(F)(F)F)ccc1-n1cccc1` [Example 36, 3-(N-(2-(pyrrol-1-yl)-5-(trifluoromethyl)phenyl)sulfamoyl)-4-ethylbenzoic acid], the IC50 was less than 500 nM. Regarding `CCc1ccc(C(=O)O)cc1S(=O)(=O)Nc1cc(C(F)(F)F)ccc1-c1ccccn1` [Example 37, 4-ethyl-3-(N-(2-(pyridin-2-yl)-5-(trifluoromethyl)phenyl)sulfamoyl)benzoic acid], the IC50 was less than 500 nM. The same measure for `CCc1ccc(C(=O)O)cc1S(=O)(=O)Nc1cc(C#N)ccc1-c1ccccn1` [Example 38, 3-(N-(5-cyano-2-(pyridin-2-yl)phenyl)sulfamoyl)-4-ethylbenzoic acid]: less than 500 nM; for `CCc1ccc(C(=O)O)cc1S(=O)(=O)Nc1cc(S(C)(=O)=O)ccc1-c1cccc(C#N)c1` [Example 39, 3-(N-(3′-cyano-4-(methylsulfonyl)-[1,1′-biphenyl]-2-yl)sulfamoyl)-4-ethylbenzoic acid]: less than 500 nM. For `CCc1ccc(C(=O)O)cc1S(=O)(=O)Nc1cc(C#N)ccc1-c1ccccc1` [Example 40, 3-(N-(4-cyano-[1,1′-biphenyl]-2-yl)sulfamoyl)-4-ethylbenzoic acid], the IC50 was less than 500 nM.

With `CCc1ccc(C(=O)O)cc1S(=O)(=O)Nc1cc(C#N)ccc1-c1cccc(F)c1` [Example 41], the 50% inhibitory concentration (IC50) was less than 500 nM. In the case of `CCc1ccc(C(=O)O)cc1S(=O)(=O)Nc1cc(C#N)ccc1-c1cccc(C#N)c1` [Example 42, 3-(N-(3′,4-dicyano-[1,1′-biphenyl]-2-yl)sulfamoyl)-4-ethylbenzoic acid], the IC50 is less than 500 nM.

Turning to `CCc1ccc(C(=O)O)cc1S(=O)(=O)Nc1cc(C#N)ccc1-c1cccs1` [Example 43, 3-(N-(5-cyano-2-(thiophen-2-yl)phenyl)sulfamoyl)-4-ethylbenzoic acid], the IC50 was less than 500 nM. In the case of `COc1ccc(C(=O)O)cc1S(=O)(=O)Nc1cc(S(C)(=O)=O)ccc1-c1ccccn1` [Example 44, 4-methoxy-3-(N-(5-(methylsulfonyl)-2-(pyridin-2-yl)phenyl)sulfamoyl)benzoic acid], the IC50 was less than 500 nM. Take `COc1ccc(C(=O)O)cc1S(=O)(=O)Nc1cc(C#N)ccc1-c1ccccn1` [Example 45, 3-(N-(5-cyano-2-(pyridin-2-yl)phenyl)sulfamoyl)-4-methoxybenzoic acid]: the IC50 was less than 500 nM. The result for `COc1ccc(C(=O)O)cc1S(=O)(=O)Nc1cc(C(F)(F)F)ccc1-c1cccc(Cl)c1` [Example 46, 3-(N-(3′-chloro-4-(trifluoromethyl)-[1,1′-biphenyl]-2-yl)sulfamoyl)-4-methoxybenzoic acid] reads less than 500 nM. Take `COc1ccc(C(=O)O)cc1S(=O)(=O)Nc1cc(C(F)(F)F)ccc1-c1ccc(C)cc1` [Example 47, 4-methoxy-3-(N-(4′-methyl-4-(trifluoromethyl)-[1,1′-biphenyl]-2-yl)sulfamoyl)benzoic acid]: the IC50 was greater than 5000 nM. The same measure for `COc1ccc(-c2ccc(C(F)(F)F)cc2NS(=O)(=O)c2cc(C(=O)O)ccc2OC)cc1` [Example 48, 4-methoxy-3-(N-(4′-methoxy-4-(trifluoromethyl)-[1,1′-biphenyl]-2-yl)sulfamoyl)benzoic acid]: greater than 5000 nM; for `COc1ccc(C(=O)O)cc1S(=O)(=O)Nc1cc(C(F)(F)F)ccc1-c1ccc(Cl)cc1` [Example 49, 3-(N-(4′-chloro-4-(trifluoromethyl)-[1,1′-biphenyl]-2-yl)sulfamoyl)-4-methoxybenzoic acid]: less than 500 nM; for `CCc1ccc(C(=O)O)cc1S(=O)(=O)Nc1cc(C(F)(F)F)ccc1-n1ccnc1` [Example 50, 3-(N-(2-(imidazol-1-yl)-5-(trifluoromethyl)phenyl)sulfamoyl)-4-ethylbenzoic acid]: less than 500 nM. The result for `COc1ccc(C(=O)O)cc1S(=O)(=O)Nc1cc(C(F)(F)F)ccc1-c1ccccc1C(C)C` [Example 51, 3-(N-(2′-isopropyl-4-(trifluoromethyl)-[1,1′-biphenyl]-2-yl)sulfamoyl)-4-methoxybenzoic acid] reads less than 5000 nM. The same measure for `CCc1ccc(C(=O)O)cc1S(=O)(=O)Nc1cc(-n2cnnn2)ccc1-c1ccccc1` [Example 52, 3-(N-(4-(tetrazol-1-yl)-[1,1′-biphenyl]-2-yl)sulfamoyl)-4-ethylbenzoic acid]: less than 500 nM. On to `CCc1ccc(C(=O)O)cc1S(=O)(=O)Nc1cc(-n2cnnn2)ccc1-c1cccc(F)c1` [Example 53, 4-ethyl-3-(N-(3′-fluoro-4-(tetrazol-1-yl)-[1,1′-biphenyl]-2-yl)sulfamoyl) benzoic acid], for which the IC50 was less than 500 nM. The result for `CCc1ccc(C(=O)O)cc1S(=O)(=O)Nc1cc(S(C)(=O)=O)ccc1-c1cccnc1` [Example 54, 4-ethyl-3-(N-(5-(methylsulfonyl)-2-(pyridin-3-yl)phenyl)sulfamoyl) benzoic acid] reads less than 500 nM; that for `O=C(O)c1ccc(C2CC2)c(S(=O)(=O)Nc2cc(C(F)(F)F)ccc2-c2ccccc2)c1` [Example 55, 4-cyclopropyl-3-(N-(4-(trifluoromethyl)-[1,1′-biphenyl]-2-yl)sulfamoyl) benzoic acid], less than 500 nM. In the case of `CCc1ccc(C(=O)O)cc1S(=O)(=O)Nc1cc(-n2cnnn2)ccc1-c1cccc(C#N)c1` [Example 56, 3-(N-(3′-cyano-4-tetrazol-1-yl-[1,1′-biphenyl]-2-yl)sulfamoyl)-4-ethylbenzoic acid], the IC50 is less than 500 nM. On to `CCc1ccc(C(=O)O)cc1S(=O)(=O)Nc1cc(C#N)ccc1-c1cccnc1` [Example 57, 3-(N-(5-cyano-2-(pyridin-3-yl)phenyl)sulfamoyl)-4-ethylbenzoic acid], for which the IC50 was less than 500 nM. The result for `CCc1ccc(C(=O)O)cc1S(=O)(=O)Nc1cc(C(F)(F)F)ccc1-c1ccc(C)s1` [Example 58, 4-ethyl-3-(N-(2-(5-methylthiophen-2-yl)-5-(trifluoromethyl)phenyl)sulfamoyl)benzoic acid] reads less than 500 nM; that for `CCc1ccc(C(=O)O)cc1S(=O)(=O)Nc1cc(C(F)(F)F)ccc1-c1ccc(OC)s1` [Example 59, 4-ethyl-3-(N-(2-(5-methoxythiophen-2-yl)-5-(trifluoromethyl)phenyl)sulfamoyl)benzoic acid], less than 500 nM; that for `COc1ccc(C(=O)O)cc1S(=O)(=O)Nc1cc(C#N)ccc1-c1ccccc1` [Example 60, 3-(N-(4-cyano-[1,1′-biphenyl]-2-yl)sulfamoyl)-4-methoxybenzoic acid], less than 500 nM. The same measure for `COc1ccc(C(=O)O)cc1S(=O)(=O)Nc1cc(C#N)ccc1-c1cccc(F)c1` [Example 61, 3-(N-(4-cyano-3′-fluoro-[1,1′-biphenyl]-2-yl)sulfamoyl)-4-methoxybenzoic acid]: less than 500 nM; for `COc1ccc(C(=O)O)cc1S(=O)(=O)Nc1cc(C#N)ccc1-c1cccs1` [Example 62, 3-(N-(5-cyano-2-(thiophen-2-yl)phenyl)sulfamoyl)-4-methoxybenzoic acid]: less than 500 nM. Take `COc1ccc(C(=O)O)cc1S(=O)(=O)Nc1cc(-c2nnn[nH]2)ccc1-c1ccccc1` [Example 63, 3-(N-(4-(tetrazol-5-yl)-[1,1′-biphenyl]-2-yl)sulfamoyl)-4-methoxybenzoic acid]: the half-maximal inhibitory concentration (IC50) was less than 500 nM. `COc1ccc(C(=O)O)cc1S(=O)(=O)Nc1cc(-c2nnn[nH]2)ccc1-c1cccc(F)c1` [Example 64, 3-(N-(3′-fluoro-4-(tetrazol-5-yl)-[1,1′-biphenyl]-2-yl)sulfamoyl)-4-methoxybenzoic acid]: the IC50 was less than 500 nM. The same measure for `COc1ccc(C(=O)O)cc1S(=O)(=O)Nc1cc(-c2nnn[nH]2)ccc1-c1cccs1` [Example 65, 3-(N-(5-(tetrazol-5-yl)-2-(thiophen-2-yl)phenyl)sulfamoyl)-4-methoxybenzoic acid]: less than 500 nM; for `CCc1ccc(C(=O)O)cc1S(=O)(=O)Nc1cc(C(F)(F)F)ccc1-c1ncccc1F` [Example 66, 4-ethyl-3-(N-(2-(3-fluoropyridin-2-yl)-5-(trifluoromethyl)phenyl)sulfamoyl)benzoic acid]: less than 500 nM. With `CCc1ccc(C(=O)O)cc1S(=O)(=O)Nc1cc(C(F)(F)F)ccc1-c1ccc(F)s1` [Example 67, 4-ethyl-3-(N-(2-(5-fluorothiophen-2-yl)-5-(trifluoromethyl)phenyl)sulfamoyl)benzoic acid], the IC50 is less than 500 nM. The result for `CCc1ccc(C(=O)O)cc1S(=O)(=O)Nc1cc(C(F)(F)F)ccc1-c1ncccn1` [Example 68, 4-ethyl-3-(N-(2-(pyrimidin-2-yl)-5-(trifluoromethyl)phenyl)sulfamoyl)benzoic acid] reads less than 500 nM; that for `CCc1ccc(C(=O)O)cc1S(=O)(=O)Nc1cc(C(F)(F)F)ccc1-c1ccc[nH]1` [Example 69, 3-(N-(2-(pyrrol-2-yl)-5-(trifluoromethyl)phenyl)sulfamoyl)-4-ethylbenzoic acid], less than 500 nM; that for `CCc1ccc(C(=O)O)cc1S(=O)(=O)Nc1cc(C(F)(F)F)ccc1-c1ccc(Cl)s1` [Example 70, 3-(N-(2-(5-chlorothiophen-2-yl)-5-(trifluoromethyl)phenyl)sulfamoyl)-4-ethylbenzoic acid], less than 500 nM.
